From article PMC3582829 (European journal of medicinal chemistry, 2012)
Like-named read-outs stand apart in the source and are kept apart here.

Assays:
[1] = system: T. cruzi amastigotes; conditions: positive control; cited from earlier work
[2] = system: T. gondii tachyzoites; conditions: positive control, cited from earlier work
[3] = biological target: TcFPPS (Trypanosoma cruzi, UniProt Q8WS26); type: biochemical
[4] = system: T. cruzi amastigotes; assay: T. cruzi amastigote assay in Vero cells; type: cell-based, Trypanosoma cruzi; conditions: intracellular T. cruzi

| SMILES | ED50 T. cruzi amastigotes [1] | ED50 T. gondii ([2]; listed as risedronate) | ED50 T. gondii [2] | activity towards TcFPPS (in words) [3] | activity against T. cruzi amastigotes (in words) [4] |
| --- | --- | --- | --- | --- | --- |
| O=P(O)(O)C(O)(Cc1cccnc1)P(=O)(O)O [Risedronate, risedronate] | 55.0 ± 5.0 [68] μM | 2.4 µM | 2.4 ± 0.7 [29] μM |  |  |
| CCCCCCCNCC(O)(P(=O)(O)O)P(=O)(O)O [Compound 21, 1-[(n-Heptylamino)ethyl]-1-hydroxy-1,1-bisphosphonic Acid] |  |  |  | almost devoid of antiparasitic activity | almost devoid of antiparasitic activity |
| CCCCCCCSCC(P(=O)(O)O)P(=O)(O)O [Compound 36, 1-[(n-Heptylthio)ethyl]-1,1-bisphosphonic Acid] |  |  |  | devoid of anti-T. cruzi activity | devoid of anti-T. cruzi activity |
| CCCCCC(C)NCC(P(=O)(O)O)P(=O)(O)O (stereo not drawn) [Compound 18, 1-[(n-Hept-2-ylamino)ethyl] 1,1-bisphosphonic Acid] |  |  |  | almost devoid of antiparasitic activity | almost devoid of antiparasitic activity |
